Assays:
[1] = target: FLT3 (Homo sapiens (Human), UniProt P36888); experiment: HotSpot radiometric kinase assay (Reaction Biology); format: biochemical
Procedure: Briefly, specific kinase/substrate pairs along with required cofactors were prepared in reaction buffer; 20 mM Hepes pH 7.5, 10 mM MgCl2, 1 mM EGTA, 0.02% Brij35, 0.02 mg/ml BSA, 0.1 mM Na3VO4, 2 mM DTT, 1% DMSO. Compounds were delivered into the reaction, followed ˜20 minutes later by addition of a mixture of ATP (Sigma, St. Louis MO) and ^33P ATP (Perkin Elmer, Waltham MA) to a final concentration of 10 M. Reactions were carried out at room temperature for 120 min, followed by spotting of the reactions onto P81 ion exchange filter paper (Whatman Inc., Piscataway, NJ). Unbound phosphate was removed by extensive washing of filters in 0.75% phosphoric acid. […] IC50 values and curve fits were obtained using Prism (GraphPad Software).

[2] = system: 786-O; experiment: Cell proliferation panel (CellTiter-Glo 2.0, 5 days); format: cell-based; conditions: Renal cell adenocarcinoma
Procedure: (§1) Cell proliferation assay was carried out in a panel of 108 cell lines. 1000 (attached cells) or 3000 (suspension cells) cells/100 μl per well were seeded in 96 well black plate with a clear bottom (Corning #3904). Compounds were added using Tecan D300e Digital Dispenser in 1:3 titration for 9 doses. Plates were incubated for 5 days at 37° C. and 5% CO2. Cell proliferation was measured using CellTiter-Glo 2.0 luciferase-based ATP detection assay (Promega, Madison, WI) at 50 μl per well following the manufacturer's protocol. Plates were then read on a TECAN Sparks multimode microplate reader. Data was analyzed using GraphPad Prism 9 (GraphPad Software, San Diego, CA) to obtain IC50 values. IC50 values were determined using Prism software (GraphPad Software, San Diego, CA).

[3] = system: A549; experiment: as above; format: cell-based; conditions: Lung carcinoma, NSCLC
Procedure: as §1

[4] = system: ASPC1; experiment: as above; format: cell-based; conditions: Pancreatic adenocarcinoma
Procedure: as §1

[5] = system: BJ; experiment: as above; format: cell-based; conditions: Skin fibroblast
Procedure: as §1

[6] = system: BT-474; experiment: as above; format: cell-based; conditions: Mammary gland ductal carcinoma
Procedure: as §1

[7] = system: CT26; experiment: as above; format: cell-based; conditions: Murine colon carcinoma fibroblasts
Procedure: as §1

[8] = system: DU4475; experiment: as above; format: cell-based; conditions: Breast carcinoma
Procedure: as §1

[9] = system: EOL-1; experiment: as above; format: cell-based; conditions: Chronic eosinophilic leukemia
Procedure: as §1

[10] = system: H1930; experiment: as above; format: cell-based; conditions: Lung carcinoma small cell lung cancer
Procedure: as §1

[11] = system: H1975; experiment: as above; format: cell-based; conditions: Lung adenocarcinoma NSCLC
Procedure: as §1

[12] = system: H211; experiment: as above; format: cell-based; conditions: Small cell lung carcinoma
Procedure: as §1

[13] = system: H2122; experiment: as above; format: cell-based; conditions: Lung adenocarcinoma NSCLC
Procedure: as §1

[14] = system: H2291; experiment: as above; format: cell-based; conditions: Lung adenocarcinoma NSCLC
Procedure: as §1

[15] = system: H526; experiment: as above; format: cell-based; conditions: Small cell lung cancer
Procedure: as §1

[16] = system: H69; experiment: as above; format: cell-based; conditions: Lung small cell carcinoma
Procedure: as §1

[17] = system: HCC1569; experiment: as above; format: cell-based; conditions: Mammary gland metaplastic carcinoma
Procedure: as §1

[18] = system: HGC-27; experiment: as above; format: cell-based; conditions: Gastric carcinoma
Procedure: as §1

[19] = system: HNT-34; experiment: as above; format: cell-based; conditions: Acute myeloid leukemia
Procedure: as §1

[20] = system: JPC3; experiment: as above; format: cell-based; conditions: Lung carcinoma
Procedure: as §1

[21] = system: KASUMI-3; experiment: as above; format: cell-based; conditions: Acute myeloblastic leukemia
Procedure: as §1

[22] = system: Kelly; experiment: as above; format: cell-based; conditions: Neuroblastoma
Procedure: as §1

[23] = system: LNCaP; experiment: as above; format: cell-based; conditions: Prostate carcinoma
Procedure: as §1

[24] = system: LS180; experiment: as above; format: cell-based; conditions: Colorectal adenocarcinoma
Procedure: as §1

[25] = system: LS513; experiment: as above; format: cell-based; conditions: Colorectal carcinoma
Procedure: as §1

[26] = system: MC38; experiment: as above; format: cell-based; conditions: Murine colon adenocarcinoma
Procedure: as §1

[27] = system: MFM-223; experiment: as above; format: cell-based; conditions: Breast carcinoma
Procedure: as §1

[28] = system: MOLM-1; experiment: as above; format: cell-based; conditions: Chronic myeloid leukemia
Procedure: as §1

[29] = system: Ovcar3; experiment: as above; format: cell-based; conditions: Ovarian adenocarcinoma
Procedure: as §1

[30] = system: PANC0203; experiment: as above; format: cell-based; conditions: Pancreatic adenocarcinoma
Procedure: as §1

[31] = system: PANC0504; experiment: as above; format: cell-based; conditions: Pancreatic carcinoma
Procedure: as §1

[32] = system: SKNO-1; experiment: as above; format: cell-based; conditions: Acute myeloid leukemia
Procedure: as §1

[33] = system: SW403; experiment: as above; format: cell-based; conditions: Colorectal adenocarcinoma
Procedure: as §1

[34] = system: SW480; experiment: as above; format: cell-based; conditions: Colorectal adenocarcinoma
Procedure: as §1

[35] = system: T47D; experiment: as above; format: cell-based; conditions: Mammary gland ductal carcinoma
Procedure: as §1

[36] = system: TOV-112D; experiment: as above; format: cell-based; conditions: Endometrioid ovarian cancer
Procedure: as §1

[37] = system: Toledo; experiment: as above; format: cell-based; conditions: Diffuse Large B Cell Lymphoma
Procedure: as §1

[38] = system: U138-MG; experiment: as above; format: cell-based; conditions: Brain glioblastaoma
Procedure: as §1

[39] = system: MOLM-13 cell line; experiment: Alternative splicing events by RNAseq in MOLM-13; format: cell-based; conditions: 8 hour-incubation
Procedure: Alternative splicing events were measured by RNAseq in MOLM-13 cell line. Cells were plated in 24 well plates at 1 million cells per well and then treated with compounds at different concentrations, with DMSO as control. After 8 hour-incubation, cells were harvested and washed once with ice-cold PBS, and lysed in RNA lysis buffer (Invitrogen). Total RNA was extracted using the RNA Purification Kit (Invitrogen). RNAseq was performed by Biomiga (San Diego).

Chain of FLT3 (P36888 27-993): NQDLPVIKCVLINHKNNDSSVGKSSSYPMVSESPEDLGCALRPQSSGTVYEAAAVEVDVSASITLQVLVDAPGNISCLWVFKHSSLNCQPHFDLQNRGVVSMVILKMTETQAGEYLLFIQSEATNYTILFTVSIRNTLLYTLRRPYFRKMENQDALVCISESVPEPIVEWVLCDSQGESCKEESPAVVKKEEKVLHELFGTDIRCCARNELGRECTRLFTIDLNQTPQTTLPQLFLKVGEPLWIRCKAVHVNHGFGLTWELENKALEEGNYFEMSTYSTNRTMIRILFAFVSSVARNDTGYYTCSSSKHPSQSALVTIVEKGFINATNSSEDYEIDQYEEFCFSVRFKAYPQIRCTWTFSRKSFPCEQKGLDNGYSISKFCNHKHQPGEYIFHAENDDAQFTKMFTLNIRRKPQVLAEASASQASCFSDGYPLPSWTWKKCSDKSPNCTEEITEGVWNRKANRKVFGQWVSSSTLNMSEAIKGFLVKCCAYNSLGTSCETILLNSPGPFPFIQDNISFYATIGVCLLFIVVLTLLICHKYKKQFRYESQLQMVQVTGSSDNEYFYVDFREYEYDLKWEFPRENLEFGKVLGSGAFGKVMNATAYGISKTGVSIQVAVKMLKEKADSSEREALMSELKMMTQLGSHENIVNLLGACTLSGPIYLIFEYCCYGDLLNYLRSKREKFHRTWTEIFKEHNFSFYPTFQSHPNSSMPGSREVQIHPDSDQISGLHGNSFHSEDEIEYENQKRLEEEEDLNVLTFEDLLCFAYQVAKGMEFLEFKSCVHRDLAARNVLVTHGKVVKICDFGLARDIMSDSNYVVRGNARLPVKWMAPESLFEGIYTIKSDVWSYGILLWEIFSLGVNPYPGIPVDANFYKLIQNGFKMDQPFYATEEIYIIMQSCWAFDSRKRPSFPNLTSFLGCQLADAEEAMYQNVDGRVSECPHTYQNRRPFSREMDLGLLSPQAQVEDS

CCc1nn(C)c2c1/C=C/c1n[nH]c3ccc(cc13)-c1cnn(C)c1OCCN(C)C2=O [Ex. 6, (17E)-16-ethyl-8,12,14-trimethyl-2,11,12,14-tetrahydro-8H-3,5-ethenotripyrazolo[3,4-f:3′,4′-j:4″,3″-n][1,4]oxazacyclopentadecin-13(10H)-one]
IC50 [1]: 0.088 nM | IC50 [2]: 138 nM | IC50 [3]: 67.7 nM | IC50 [4]: 241 nM | IC50 [5]: 516 nM | IC50 [6]: 278 nM | IC50 [7]: 215 nM | IC50 [8]: 61.4 nM | IC50 [9]: 18.9 nM | IC50 [10]: 181 nM | IC50 [11]: 87.2 nM | IC50 [12]: 105 nM | IC50 [13]: 73.7 nM | IC50 [14]: 362 nM | IC50 [15]: 75.5 nM | IC50 [16]: 100 nM | IC50 [17]: 151 nM | IC50 [18]: 100 nM | IC50 [19]: 22.3 nM | IC50 [20]: 171 nM | IC50 [21]: 43.3 nM | IC50 [22]: 51.5 nM | IC50 [23]: 136 nM | IC50 [24]: 82.7 nM | IC50 [25]: 30.1 nM | IC50 [26]: 217 nM | IC50 [27]: 36.8 nM | IC50 [28]: 80.5 nM | IC50 [29]: 70.7 nM | IC50 [30]: 126 nM | IC50 [31]: 82.2 nM | IC50 [32]: 23.3 nM | IC50 [33]: 18 nM | IC50 [34]: 90.5 nM | IC50 [35]: 114 nM | IC50 [36]: 62.5 nM | IC50 [37]: 34.6 nM | IC50 [38]: 170 nM | AS Events A3′SS (alternative 3′ splice site) ([39]; MOLM-13, 30 nM): 371 | AS Events A5′SS (alternative 5′ splice site) ([39]; MOLM-13, 30 nM): 289 | AS Events MXE (mutually exclusive exons) ([39]; MOLM-13, 30 nM): 187 | AS Events RI (retained intron) ([39]; MOLM-13, 30 nM): 536 | AS Events SE (skipped exon) ([39]; MOLM-13, 30 nM): 2054 | AS Events A3′SS (alternative 3′ splice site) ([39]; MOLM-13, 100 nM): 559 | AS Events A5′SS (alternative 5′ splice site) ([39]; MOLM-13, 100 nM): 443 | AS Events MXE (mutually exclusive exons) ([39]; MOLM-13, 100 nM): 325 | AS Events RI (retained intron) ([39]; MOLM-13, 100 nM): 841 | AS Events SE (skipped exon) ([39]; MOLM-13, 100 nM): 4568 | AS Events A3′SS (alternative 3′ splice site) ([39]; MOLM-13, 300 nM): 722 | AS Events A5′SS (alternative 5′ splice site) ([39]; MOLM-13, 300 nM): 590 | AS Events MXE (mutually exclusive exons) ([39]; MOLM-13, 300 nM): 355 | AS Events RI (retained intron) ([39]; MOLM-13, 300 nM): 1184 | AS Events SE (skipped exon) ([39]; MOLM-13, 300 nM): 5093

Source: patent US20260070924A1, “INDAZOLE MACROCYCLES AND THEIR USE” (BLOSSOMHILL THERAPEUTICS, INC., priority 2022, published 2026)
